Legend:
[1] = intravenous injection of Yoshixol in control rabbit, observation for abnormal signs; type: in vivo; conditions: Japanese white rabbit, 10 μl/Kg of 2 M Yoshixol with ethanol i.v. for 3 min, immediately after the injection through one month
Method: In addition, rabbit serum as the control which was shown in this example was produced by the following. In a Japanese white rabbit which was born from a parent as same as a rabbit which was used in the above example, 10 μl/Kg of 2 M Yoshixol with ethanol was injected intravenously for 3 min via a ear vein. Solution of Yoshixol was mixed with culture medium of 5 ml. The medium was filtered through miliporefilter of cellulose acetate (pore size, 0.45 μm). […] A rabbit was sacrificed under Nembutal anesthesia one month after the injection. Blood was removed.

MRSA = assay: CFU of MRSA in broth after Yoshixol; type: cell-based, methicilin resistant Staphylococcus aureus
From the text: (§1) This procedure was repeated twice.

Candida albicans = assay: CFU of Candida albicans in broth after Yoshixol; type: cell-based; conditions: for CFU: 2 M Yoshixol in ethanol, 10 ul/ml broth
From the text: as §1

Pseudomonas aureginosa = assay: CFU of Pseudomonas aureginosa after Yoshixol; type: cell-based; conditions: for CFU: 2 M Yoshixol in ethanol, 10 ul/ml broth, 10^8, 37° C.
From the text: as §1

[2] = test system: Mycobacterium Rapid Grower; assay: CFU of Mycobacterium Rapid Grower after Yoshixol; type: cell-based; conditions: for CFU: 2 M Yoshixol in ethanol, 10 ul/ml broth, 3.3×10^5, 37° C.
From the text: as §1

For `C=C1CC(C)(C)C=CC1=O` [Yoshixol, 4,4-dimethyl-6-methylene-2-cyclohexen-1-one], which “abnormal signs after injection” value [1] is on record?
Its value is “Any abnormal sign did not find”.

And the CFU (MRSA; 2 M Yoshixol in ethanol, 10 ul/ml broth, 7.6×10^8, 37 °, 24 hours after the incubation)?
Its CFU is “zero”.

And the “colony growth on heart infusion agar after re-plating 0.1 ml” value (from here on “colony growth on heart infusion agar”) (MRSA; incubated for 48 hours)?
Its value is “no colony growth”.

And the CFU (Candida albicans; 10^8, 3 hours after the incubation)?
Its CFU is “zero”.

What about the CFU (Candida albicans; 10^8, one hour after the incubation) of the same molecule?
The CFU was “zero”.

What about the “colony growth on heart infusion agar” value (Candida albicans; incubated for 48 hours) of the same molecule?
Its value is “no colony growth”.

What about the CFU (Pseudomonas aureginosa; 3 hours after the incubation) of the same molecule?
The CFU was “zero”.

And the CFU (Pseudomonas aureginosa; one hour after the incubation)?
The CFU was “zero”.

What about the “colony growth on heart infusion agar” value (Pseudomonas aureginosa; incubated at 37° C. for 48 hours) of the same molecule?
Its value is “no colony growth”.

And the CFU ([2]; 3 hours after the incubation)?
Its CFU is “zero”.

And the CFU ([2]; one hour after the incubation)?
Its CFU is “zero”.

And the “colony growth on heart infusion agar” value ([2]; incubated at 37° C. for 72 hours)?
Its value is “no colony growth”.
